System: 186277-243-T-J2-PDC spheroids with HUVEC/MSC, viability
Assay: Anticancer human tumor 186277-243-T-J2-PDC patient-derived colon adenocarcinoma cell line growth inhibition [CLK]
Conditions: for IC50: curve of first compound; for viability, T/C: stronger effect = lower value
Outline: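 Multi-cell-type spheroids combined patient-derived tumor cells with HUVEC endothelial cells and human mesenchymal stem cells. Paired agents were dosed in half-log steps down from about clinical Cmax, or from 10 microM where Cmax was unknown.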

[1] = second compound 0.0316 µM, first compound 0.0316 µM
[2] = second compound 0.0316 µM, first compound 0.1 µM
[3] = second compound 0.0316 µM, first compound 0.316 µM
[4] = second compound 0.0316 µM, first compound 1 µM
[5] = second compound 0.0316 µM, first compound 3.16 µM
[6] = second compound 0.0316 µM, first compound 10 µM
[7] = second compound 0.1 µM, first compound 0.0316 µM
[8] = second compound 0.1 µM, first compound 0.1 µM
[9] = second compound 0.1 µM, first compound 0.316 µM
[10] = second compound 0.1 µM, first compound 1 µM
[11] = second compound 0.1 µM, first compound 3.16 µM
[12] = second compound 0.1 µM, first compound 10 µM
[13] = second compound 0.316 µM, first compound 0.0316 µM
[14] = second compound 0.316 µM, first compound 0.1 µM
[15] = second compound 0.316 µM, first compound 0.316 µM
[16] = second compound 0.316 µM, first compound 1 µM
[17] = second compound 0.316 µM, first compound 3.16 µM
[18] = second compound 0.316 µM, first compound 10 µM
[19] = second compound 1 µM, first compound 0.0316 µM
[20] = second compound 1 µM, first compound 0.1 µM
[21] = second compound 1 µM, first compound 0.316 µM
[22] = second compound 1 µM, first compound 1 µM
[23] = second compound 1 µM, first compound 3.16 µM
[24] = second compound 1 µM, first compound 10 µM
[25] = second compound 3.16 µM, first compound 0.0316 µM
[26] = second compound 3.16 µM, first compound 0.1 µM
[27] = second compound 3.16 µM, first compound 0.316 µM
[28] = second compound 3.16 µM, first compound 1 µM
[29] = second compound 3.16 µM, first compound 3.16 µM
[30] = second compound 3.16 µM, first compound 10 µM
[31] = second compound 10 µM, first compound 0.0316 µM
[32] = second compound 10 µM, first compound 0.1 µM
[33] = second compound 10 µM, first compound 0.316 µM
[34] = second compound 10 µM, first compound 1 µM
[35] = second compound 10 µM, first compound 3.16 µM
[36] = second compound 10 µM, first compound 10 µM
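Also: compound exposure lasted seven days before readout.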
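For viability, T/C in this document: 100% = DMSO vehicle control wells.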

NC(=O)C(=Cn1cnc(-c2cc(C(F)(F)F)cc(C(F)(F)F)c2)n1)c1cncnc1 + CN1CCN(c2cc(C(=O)Nc3cc4cc(-c5cnn(C)c5)ccc4cn3)ccn2)CC1
IC50 (second compound 0.0316 µM): 127 nM | IC50 (second compound 0.1 µM): 39 nM | IC50 (second compound 0.316 µM): < 9.49 nM | IC50 (second compound 1 µM): < 9.49 nM | IC50 (second compound 3.16 µM): < 9.49 nM | IC50 (second compound 10 µM): < 9.49 nM | viability, T/C (second compound 0.0316 µM, first compound 0.00949 µM): 98.3% | viability, T/C (second compound 0.0316 µM, first compound 0.03 µM): 83.4% | viability, T/C (second compound 0.0316 µM, first compound 0.0949 µM): 65.4% | viability, T/C (second compound 0.0316 µM, first compound 0.3 µM): 5.69% | viability, T/C (second compound 0.0316 µM, first compound 0.949 µM): 1.85% | viability, T/C (second compound 0.0316 µM, first compound 3 µM): 2.91% | viability, T/C (second compound 0.1 µM, first compound 0.00949 µM): 61.6% | viability, T/C (second compound 0.1 µM, first compound 0.03 µM): 60.9% | viability, T/C (second compound 0.1 µM, first compound 0.0949 µM): 13.1% | viability, T/C (second compound 0.1 µM, first compound 0.3 µM): 1.94% | viability, T/C (second compound 0.1 µM, first compound 0.949 µM): 0.71% | viability, T/C (second compound 0.1 µM, first compound 3 µM): 1.36% | viability, T/C (second compound 0.316 µM, first compound 0.00949 µM): 9.76% | viability, T/C (second compound 0.316 µM, first compound 0.03 µM): 4.11% | viability, T/C (second compound 0.316 µM, first compound 0.0949 µM): 0.34% | viability, T/C (second compound 0.316 µM, first compound 0.3 µM): 0.6% | viability, T/C (second compound 0.316 µM, first compound 0.949 µM): 0.58% | viability, T/C (second compound 0.316 µM, first compound 3 µM): 0.92% | viability, T/C (second compound 1 µM, first compound 0.00949 µM): 1% | viability, T/C (second compound 1 µM, first compound 0.03 µM): 1.1% | viability, T/C (second compound 1 µM, first compound 0.0949 µM): 0.81% | viability, T/C (second compound 1 µM, first compound 0.3 µM): 0.47% | viability, T/C (second compound 1 µM, first compound 0.949 µM): 0.34% | viability, T/C (second compound 1 µM, first compound 3 µM): 3.14% | viability, T/C (second compound 3.16 µM, first compound 0.00949 µM): 1.66% | viability, T/C (second compound 3.16 µM, first compound 0.03 µM): 1.29% | viability, T/C (second compound 3.16 µM, first compound 0.0949 µM): 1.77% | viability, T/C (second compound 3.16 µM, first compound 0.3 µM): 1.67% | viability, T/C (second compound 3.16 µM, first compound 0.949 µM): 1.12% | viability, T/C (second compound 3.16 µM, first compound 3 µM): 1.92% | viability, T/C (second compound 10 µM, first compound 0.00949 µM): 1.29% | viability, T/C (second compound 10 µM, first compound 0.03 µM): 1.77% | viability, T/C (second compound 10 µM, first compound 0.0949 µM): 1.3% | viability, T/C (second compound 10 µM, first compound 0.3 µM): 0.74% | viability, T/C (second compound 10 µM, first compound 0.949 µM): 1.71% | viability, T/C (second compound 10 µM, first compound 3 µM): 1.04%

CC(=O)O[C@H]1C(=O)[C@@]2(C)[C@H]([C@H](OC(=O)c3ccccc3)[C@]3(O)C[C@H](OC(=O)[C@H](O)[C@@H](NC(=O)c4ccccc4)c4ccccc4)C(C)=C1C3(C)C)[C@]1(OC(C)=O)CO[C@@H]1C[C@@H]2O + CN1CCN(c2cc(C(=O)Nc3cc4cc(-c5cnn(C)c5)ccc4cn3)ccn2)CC1
IC50 (second compound 0.0316 µM): < 31.6 nM | IC50 (second compound 0.1 µM): < 31.6 nM | IC50 (second compound 0.316 µM): < 31.6 nM | IC50 (second compound 1 µM): < 31.6 nM | IC50 (second compound 3.16 µM): < 31.6 nM | IC50 (second compound 10 µM): < 31.6 nM | viability, T/C [1]: 15.6% | viability, T/C [2]: 13.7% | viability, T/C [3]: 8.66% | viability, T/C [4]: 12.4% | viability, T/C [5]: 9.25% | viability, T/C [6]: 8.97% | viability, T/C [7]: 14.4% | viability, T/C [8]: 14.6% | viability, T/C [9]: 11.3% | viability, T/C [10]: 11.4% | viability, T/C [11]: 10.2% | viability, T/C [12]: 10.2% | viability, T/C [13]: 13.3% | viability, T/C [14]: 13.2% | viability, T/C [15]: 12.5% | viability, T/C [16]: 12.5% | viability, T/C [17]: 13.6% | viability, T/C [18]: 12.1% | viability, T/C [19]: 2.45% | viability, T/C [20]: 1.65% | viability, T/C [21]: 0.61% | viability, T/C [22]: 3.85% | viability, T/C [23]: 1.22% | viability, T/C [24]: 0.69% | viability, T/C [25]: 0.85% | viability, T/C [26]: 1.39% | viability, T/C [27]: 0.92% | viability, T/C [28]: 2.55% | viability, T/C [29]: 2.07% | viability, T/C [30]: 1.24% | viability, T/C [31]: 1.95% | viability, T/C [32]: 3.43% | viability, T/C [33]: 0.65% | viability, T/C [34]: 0.96% | viability, T/C [35]: 1.3% | viability, T/C [36]: 0.72%

Nc1ccn(C2OC(CO)C(O)C2(F)F)c(=O)n1 (stereo unspecified) + CN1CCN(c2cc(C(=O)Nc3cc4cc(-c5cnn(C)c5)ccc4cn3)ccn2)CC1
IC50 (second compound 0.0316 µM): < 31.6 nM | IC50 (second compound 0.1 µM): < 31.6 nM | IC50 (second compound 0.316 µM): < 31.6 nM | IC50 (second compound 1 µM): < 31.6 nM | IC50 (second compound 3.16 µM): < 31.6 nM | IC50 (second compound 10 µM): < 31.6 nM | viability, T/C [1]: 14% | viability, T/C [2]: 14.4% | viability, T/C [3]: 13.2% | viability, T/C [4]: 15.4% | viability, T/C [5]: 15.7% | viability, T/C [6]: 15% | viability, T/C [7]: 14.1% | viability, T/C [8]: 15.4% | viability, T/C [9]: 13.7% | viability, T/C [10]: 15.4% | viability, T/C [11]: 13.6% | viability, T/C [12]: 13.5% | viability, T/C [13]: 14.8% | viability, T/C [14]: 12.4% | viability, T/C [15]: 13.9% | viability, T/C [16]: 12% | viability, T/C [17]: 8.4% | viability, T/C [18]: 7.19% | viability, T/C [19]: 1.75% | viability, T/C [20]: 1.77% | viability, T/C [21]: 1.48% | viability, T/C [22]: 0.16% | viability, T/C [23]: 0.64% | viability, T/C [24]: 0.64% | viability, T/C [25]: 1.77% | viability, T/C [26]: 1.46% | viability, T/C [27]: 0.93% | viability, T/C [28]: 4.16% | viability, T/C [29]: 2.01% | viability, T/C [30]: 0.57% | viability, T/C [31]: 0.82% | viability, T/C [32]: 0.83% | viability, T/C [33]: 0.9% | viability, T/C [34]: 1.08% | viability, T/C [35]: 0.95% | viability, T/C [36]: 0.6%
